Values of other authors, collected in patent US20120027718A1, “COMBINATION THERAPY WITH GLATIRAMER ACETATE AND RASAGILINE FOR THE TREATMENT OF MULTIPLE SCLEROSIS” (Teva Pharmaceutical Industries, Ltd., priority 2005, published 2012).

How the values were obtained:
stroke models = conditions: in vivo
[1] = tested on: models of traumatic head injury; conditions: in vivo

In the case of `C#CCN[C@@H]1CCc2ccccc21` [Rasagiline, R(+)-N-propargyl-1-aminoindan], the “efficacy in stroke models” value (stroke models) is listed as “effective” and the “efficacy in models of traumatic head injury” value [1] is listed as “effective”.
In the case of “L-glutamic acid polymer with L-alanine, L-lysine and L-tyrosine, acetate (salt) [Glatiramer acetate]”, the “relapse rates, progression of disability, appearance of new lesions by MRI and appearance of black holes” value (multiple sclerosis (MS); daily subcutaneous injections, 20 mg/injection) is listed as “reduce” and the “efficacy in treating multiple sclerosis” value (multiple sclerosis (MS); human, in vivo) is listed as “effective”.
